We go through 20 compounds from US20060100431A1, “Biologically active compounds” (Amura Therapeutics Limited, priority 2002, published 2006).

Molecules are shown by their SMILES.

This test concerns the target Wild-type cruzipain (Trypanosoma cruzi, UniProt P25779). The test is described as follows: Trypanosoma cruzi cruzipain peptidase activity assay (Ki). The format is biochemical. The note with it: read-out: Ki, inhibitors of cruzain and cruzipains. As for the experimental part: Unless otherwise stated, all general chemicals and biochemicals were purchased from either the Sigma Chemical Company, Poole, Dorset, U.K or from Fisher Scientific UK, Loughborough, Leicestershire, U.K. Absorbance assays were carried out in flat-bottomed 96-well plates (Spectra; Greiner Bio-One Ltd., Stonehouse, Gloucestershire, U.K.) using a SpectraMax PLUS384 plate reader (Molecular Devices, Crawley, U.K.). Fluorescence high throughput assays were carried out in either 384-well microtitre plates (Corning Costar 3705 plates, Fisher Scientific) or 96-well ‘U’ bottomed Microfluor W1 microtitre plates (Thermo Labsystems, Ashford, Middlesex, U.K.). Fluorescence assays were monitored using a SpectraMax Gemini fluorescence plate reader (Molecular Devices). For substrates employing either a 7-amino-4-methylcoumarin (AMC) or a 7-amino-4-trifluoromethylcoumarin (AFC) fluorophore, assays were monitored at an excitation wavelength of 365 nm and an emission wavelength of 450 nm and the fluorescence plate reader calibrated with AMC. For substrates employing a 3-amino-benzoyl (Abz) fluorophore, assays were monitored at an excitation wavelength of 310 nm and an emission wavelength of 445 nm; the fluorescence plate reader calibrated with 3-amino-benzamide (Fluka). Unless otherwise indicated, all the peptidase substrates were purchased from Bachem UK, St Helens, Merseyside, UK. Substrates utilizing fluorescence resonance energy transfer methodology (i.e. FRET-based substrates) were synthesized at Incenta Limited using published methods (Atherton & Sheppard, Solid Phase Peptide Synthesis, IRL Press, Oxford, U.K, 1989) and employed Abz (2-aminobenzoyl) as the fluorescence donor and 3-nitro-tyrosine [Tyr(NO2)] as the fluorescence quencher (Meldal, M. and Breddam, K., Anal. Biochem, 195, 141-147, 1991). Hydroxyethylpiperazine ethanesulfonate (HEPES), tris-hydroxylmethyl aminomethane (tris) base, bis-tris-propane and all the biological detergents (e.g. CHAPS, zwittergents, etc.) were purchased from CN Biosciences UK, Beeston, Nottinghamshire, U.K. Glycerol was purchased from Amersham Pharmacia Biotech, Little Chalfont, Buckinghamshire, U.K. Stock solutions of substrate or inhibitor were made up to 10 mM in 100% dimethylsulfoxide (DMSO) (Rathburns, Glasgow, U.K.) and diluted as appropriately required. In all cases the DMSO concentration in the assays was maintained at less than 1% (vol./vol.).
Assay protocols were based on literature precedent (Table 4; Barrett, A. J., Rawlings, N. D. and Woessner, J. F., 1998, Handbook of Proteolytic Enzymes, Academic Press, London and references therein) and modified as required to suit local assay protocols. Enzyme was added as required to initiate the reaction and the activity, as judged by the change in fluorescence upon conversion of substrate to product, was monitored over time. All assays were carried out at 25±1° C.
Wild-type cruzipain, derived from Trypanosoma cruzi Dm28 epimastigotes, was obtained from Dr. Julio Scharfstein (Instituto de Biofisica Carlos Chagas Filho, Universidade Federal do Rio de Janeiro, Rio de Janeiro, Brazil). Activity assays were carried out in 100 mM sodium phosphate, pH 6.75 containing 1 mM EDTA and 10 mM L-cysteine using 2.5 nM enzyme. […] The rate of conversion of substrate to product was derived from the slope of the increase in fluorescence monitored continuously over time.
The apparent inhibition constant (Ki) for each compound was determined on the basis that inhibition was reversible and occurred by a pure-competitive mechanism. The Ki values were calculated, from the dependence of enzyme activity as a function of inhibitor concentration, by direct regression analysis (Prism v 3.02) using Equation 2 (Cornish-Bowden, A., 1995.). [formula]

Sequence of Wild-type cruzipain (P25779 whole entry): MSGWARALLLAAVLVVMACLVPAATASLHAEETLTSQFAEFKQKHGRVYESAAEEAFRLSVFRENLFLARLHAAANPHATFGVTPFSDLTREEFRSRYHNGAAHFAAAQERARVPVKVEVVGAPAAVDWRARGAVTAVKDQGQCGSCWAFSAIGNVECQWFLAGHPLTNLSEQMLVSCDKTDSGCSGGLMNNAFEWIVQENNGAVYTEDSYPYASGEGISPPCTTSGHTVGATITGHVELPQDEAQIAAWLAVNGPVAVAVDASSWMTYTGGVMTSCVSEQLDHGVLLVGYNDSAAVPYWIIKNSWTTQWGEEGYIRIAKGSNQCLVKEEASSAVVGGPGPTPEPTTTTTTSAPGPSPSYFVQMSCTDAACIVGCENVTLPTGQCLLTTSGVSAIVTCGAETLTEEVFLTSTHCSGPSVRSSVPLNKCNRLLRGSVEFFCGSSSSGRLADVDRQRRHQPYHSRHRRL

Consider `CC(C)C[C@H](NC(=O)c1ccc(N(C)C)cc1)C(=O)N1CC[C@@H]2[C@H]1C(=O)CN2C(=O)[C@H](C)N` [Example 162, (3aR,6aS)-N-{(1S)-1-[4-((2S)-2-Amino-propionyl)-6-oxo-hexahydro-pyrrolo[3,2-b]pyrrole-1-carbonyl]-3-methyl-butyl}-4-dimethylamino-benzamide], for which the inhibition constant Ki is < 5 µM.

As for `O=C(N[C@@H](Cc1ccc(O)cc1)C(=O)N1CC[C@@H]2[C@H]1C(=O)CN2C(=O)c1ccccc1)c1ccccc1` [Example 333, (3aR,6aS)-N-[(1S)-2-(4-Benzoyl-6-oxo-hexahydro-pyrrolo[3,2-b]pyrrol-1-yl)-1-(4-hydroxy-benzyl)-2-oxo-ethyl]-benzamide], the Ki was < 5 µM.

As for `CC[C@H](N)C(=O)N1CC(=O)[C@@H]2[C@H]1CCN2C(=O)[C@H](CC(C)C)NC(=O)c1ccc(N(C)C)cc1` [Example 203, (3aR,6aS)-N-{(1S)-1-[4-((2S)-2-Amino-butyryl)-6-oxo-hexahydro-pyrrolo[3,2-b]pyrrole-1-carbonyl]-3-methyl-butyl}-4-dimethylamino-benzamide], the Ki is < 5 µM.

With `CC(C)C[C@H](NC(=O)c1ccc(C(C)(C)C)cc1)C(=O)N1CC[C@@H]2[C@H]1C(=O)CN2C(=O)c1cccc2ccccc12` [Example 33, (3aR,6aS)-tert-Butyl-N-{(1)-3-methyl-1-[4-(naphthalene-1-carbonyl)-6-oxo-hexahydro-pyrrolo[3,2-b]pyrrole-1-carbonyl-]-butyl}-benzamide], the inhibition constant Ki was < 5 µM.

Regarding `O=C(N[C@@H](Cc1ccc(F)cc1)C(=O)N1CC[C@@H]2[C@H]1C(=O)CN2C(=O)c1ccccc1)c1cccc(Br)c1` [Example 344, (3aR,6aS)-N-[(1S)-2-(4-Benzoyl-6-oxo-hexahydro-pyrrolo[3,2-b]pyrrol-1-yl)-1-(4-fluoro-benzyl)-2-oxo-ethyl]-3-bromo-benzamide], the inhibition constant (Ki) is < 5 µM.

On to `CC(C)C[C@H](NC(=O)c1ccc(C(C)(C)C)cc1)C(=O)N1CC[C@@H]2[C@H]1C(=O)CN2C(=O)c1ccccc1Cc1ccccc1` [Example 36, (3aR,6aS)-N-{(1S)-1-[4-(2-Benzyl-benzoyl)-6-oxo-hexahydro-pyrrolo[3,2-b]pyrrole-1-carbonyl]-3-methyl-butyl}-4-tert-butyl-benzamide], for which the Ki is < 5 µM.

With `CC(C)C[C@H](NC(=O)c1ccc(N(C)C)cc1)C(=O)N1CC[C@@H]2[C@H]1C(=O)CN2C(=O)CC1CCNCC1` [Example 240], the inhibitory constant (Ki) was < 5 µM.

Regarding `CC(C)C[C@H](NC(=O)c1ccc(N(C)C)cc1)C(=O)N1CC[C@@H]2[C@H]1C(=O)CN2C(=O)c1ccccc1OC(F)(F)F` [Example 168, (3aR,6aS)-4-Dimethylamino-N-{(1S)-3-methyl-1-[6-oxo-4-(2-trifluoromethoxy-benzoyl)-hexahydro-pyrrolo[3,2-b]pyrrole-1-carbonyl]-butyl}-benzamide], the Ki was < 5 µM.

As for `CCC[C@H](NC(=O)c1ccc(N(C)C)cc1)C(=O)N1CC[C@@H]2[C@H]1C(=O)CN2C(=O)c1ccccc1` [Example 196, (3aR,6aS)-N-[(1S)-1-(4-Benzoyl-6-oxo-hexahydro-pyrrolo[3,2-b]pyrrole-1-carbonyl)-butyl]-4-dimethylamino-benzamide], the Ki is < 5 µM.

As to `CC(C)C[C@H](NC(=O)c1ccc(N(C)C)cc1)C(=O)N1CC[C@@H]2[C@H]1C(=O)CN2C(=O)C1CCNCC1` [Example 242, (3aR,6aS)-4-Dimethylamino-N-{(1S)-3-methyl-1-[6-oxo-4-(piperidine-4-carbonyl)-hexahydro-pyrrolo[3,2-b]pyrrole-1-carbonyl]-butyl}-benzamide], the Ki was < 5 µM.

On to `Cc1ccc(C(=O)N2CC(=O)[C@@H]3[C@H]2CCN3C(=O)[C@H](CC(C)C)NC(=O)c2ccc(N(C)C)cc2)cc1` [Example 55, (3aR,6aS)-4-Dimethylamino-N-{(1S)-3-methyl-1-[4-(4-methyl-benzoyl)-6-oxo-hexahydro-pyrrolo[3,2-b]pyrrole-1-carbonyl]-butyl}-benzamide], for which the inhibition constant Ki was < 5 µM.

With `CC(C)C[C@H](NC(=O)c1ccc(N(C)C)cc1)C(=O)N1CC[C@@H]2[C@H]1C(=O)CN2C(=O)C1CCC1` [Example 133, (3aR,6aS)-N-[(1S)-1-(4-Cyclobutanecarbonyl-6-oxo-hexahydro-pyrrolo[3,2-b]pyrrole-1-carbonyl)-3-methyl-butyl]-4-dimethylamino-benzamide], the Ki is < 5 µM.

For the compound `O=C(N[C@@H](CSCc1ccccc1)C(=O)N1CC[C@@H]2[C@H]1C(=O)CN2C(=O)c1ccccc1)c1cccc(Oc2ccccc2)c1` [Example 260, (3aR,6aS)-N-[(1R)-2-(4-Benzoyl-6-oxo-hexahydro-pyrrolo[3,2-b]pyrrol-1-yl)-1-benzylsulfanylmethyl-2-oxo-ethyl]-3-phenoxy-benzamide], the Ki is < 5 µM.

Regarding `CC(C)C[C@H](NC(=O)c1ccc(N(C)C)cc1)C(=O)N1CC[C@@H]2[C@H]1C(=O)CN2C(=O)c1ccc(O)cc1` [Example 49, (3aR,6aS)-4-Dimethylamino-N-{(1S)-1-[4-(4-hydroxy-benzoyl)-6-oxo-hexahydro-pyrrolo[3,2-b]pyrrole-1-carbonyl]-3-methyl-butyl}-benzamide], the Ki was < 5 µM.

For `COC(=O)NCC(=O)N1CC(=O)[C@@H]2[C@H]1CCN2C(=O)[C@H](CC(C)C)NC(=O)c1ccc(N(C)C)cc1` [Example 183, (3aS,6aR)-(2-{4-[(2S)-2-(4-Dimethylamino-benzoylamino)-4-methyl-pentanoyl]-3-oxo-hexahydro-pyrrolo[3,2-b]pyrrole-1-yl}-2-oxo-ethyl)-carbamic acid methyl ester], the Ki is < 5 µM.

For `CC(C)C[C@H](NC(=O)c1ccc(N(C)C)cc1)C(=O)N1CC[C@@H]2[C@H]1C(=O)CN2C(=O)[C@@H](N)C1CCCCC1` [Example 226, (3aR,6aS)-N-{(1S)-1-[4-((2S)-2-Amino-2-cyclohexyl-acetyl)-6-oxo-hexahydro-pyrrolo[3,2-b]pyrrole-1-carbonyl]-3-methyl-butyl}-4-dimethylamino-benzamide], the inhibition constant Ki is < 5 µM.

Regarding `COc1cccc(C(=O)N[C@@H](Cc2ccc(O)cc2)C(=O)N2CC[C@@H]3[C@H]2C(=O)CN3C(=O)c2ccccc2)c1` [Example 338, (3aR,6aS)-N-[(1S)-2-(4-Benzoyl-6-oxo-hexahydro-pyrrolo[3,2-b]pyrrol-1-yl)-1-(4-hydroxy-benzyl)-2-oxo-ethyl]-3-methoxy-benzamide], the Ki is < 5 µM.

With `O=C(N[C@@H](Cc1ccc(O)cc1)C(=O)N1CC[C@@H]2[C@H]1C(=O)CN2C(=O)c1ccccc1)c1cccc(OC(F)(F)F)c1` [Example 339, (3aR,6aS)-N-[(1S)-2-(4-Benzoyl-6-oxo-hexahydro-pyrrolo[3,2-b]pyrrol-1-yl)-1-(4-hydroxy-benzyl)-2-oxo-ethyl]-3-trifluoromethoxy-benzamide], the Ki is < 5 µM.

As to `CNCC(=O)N1CC(=O)[C@@H]2[C@H]1CCN2C(=O)[C@H](CC(C)C)NC(=O)c1ccc(N(C)C)cc1` [Example 200, (3aR,6aS)-4-Dimethylamino-N-{(1S)-3-methyl-1-[4-(2-methylamino-acetyl)-6-oxo-hexahydro-pyrrolo[3,2-b]pyrrole-1-carbonyl]-butyl}-benzamide], the Ki is < 5 µM.

`O=C(N[C@@H](Cc1cccc(F)c1)C(=O)N1CC[C@@H]2[C@H]1C(=O)CN2C(=O)c1ccccc1)c1cccc(Br)c1` [Example 342, (3aR,6aS)-N-[(1S)-2-(4-Benzoyl-6-oxo-hexahydro-pyrrolo[3,2-b]pyrrol-1-yl)-1-(3-fluoro-benzyl)-2-oxo-ethyl]-3-bromo-benzamide]: the Ki is < 5 µM.
